Laboratory results: ChEMBL document CHEMBL1201862, “PubChem BioAssay data set” (2004)
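All cell lines were grown in 96-well plates and treated with compound for 48 hours. GI50 = concentration required for 50% inhibition of growth.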 Active and inactive are the calls of the source. Rule as the data show it: active = GI50 up to about 1.1 µM and inactive = higher.

How the values were obtained:
Assay in all cases: inhibition of tumour cell growth, NCI panel, 48 h
ACHN = test system: ACHN
COLO 205 = test system: COLO 205
SF-295 = test system: SF-295
BT-549 = test system: BT-549
LOX IMVI = test system: LOX IMVI
EKVX = test system: EKVX
MDA-MB-231 = test system: MDA-MB-231
SK-MEL-28 = test system: SK-MEL-28
HOP-92 = test system: HOP-92
MCF7 = test system: MCF7
MOLT-4 = test system: MOLT-4
OVCAR-4 = test system: OVCAR-4
A498 = test system: A498
CAKI-1 = test system: CAKI-1
TK-10 = test system: TK-10
786-0 = test system: 786-0
HT-29 = test system: HT-29
T47D = test system: T47D
SNB-75 = test system: SNB-75
CCRF-CEM = test system: CCRF-CEM

Compound | GI50 (ACHN) | GI50 (COLO 205) | GI50 (SF-295) | GI50 (BT-549) | GI50 (LOX IMVI) | GI50 (EKVX) | GI50 (MDA-MB-231) | GI50 (SK-MEL-28) | GI50 (HOP-92) | GI50 (MCF7) | GI50 (MOLT-4) | GI50 (OVCAR-4) | GI50 (A498) | GI50 (CAKI-1) | GI50 (TK-10) | GI50 (786-0) | GI50 (HT-29) | GI50 (T47D) | GI50 (SNB-75) | GI50 (CCRF-CEM)
COc1ccc(SC(C)(SC)c2ccccn2)c(OC)n1 (stereo not drawn) | > 100 µM (inactive) | 31.6 µM (inactive) | 49.2 µM (inactive) | 64.9 µM (inactive) | 72.1 µM (inactive) | > 100 µM (inactive) | > 100 µM (inactive) | > 100 µM (inactive) | 70 µM (inactive) | 60.1 µM (inactive) | 3.22 µM (inactive) | 83.4 µM (inactive) | 53.3 µM (inactive) | > 100 µM (inactive) | > 100 µM (inactive) | 66.7 µM (inactive) | 42.7 µM (inactive) |  |  | 
NC(=O)NC(CC(=O)O)C(=O)O (stereo not drawn) | > 100 µM (inactive) |  | > 100 µM (inactive) | > 100 µM (inactive) | > 100 µM (inactive) | > 100 µM (inactive) | > 100 µM (inactive) | > 100 µM (inactive) | > 100 µM (inactive) |  | > 100 µM (inactive) | > 100 µM (inactive) | > 100 µM (inactive) | > 100 µM (inactive) | > 100 µM (inactive) | > 100 µM (inactive) | > 100 µM (inactive) | > 100 µM (inactive) | > 100 µM (inactive) | > 100 µM (inactive)
COC(=O)c1c(O)ccc2c1c1c(n2Cc2ccc(OC)cc2)C(=O)c2ccccc2C1=O | 2.62 µM (inactive) | 1.84 µM (inactive) | 14.2 µM (inactive) | 0.0131 µM (active) | 5.85 µM (inactive) | 35.3 µM (inactive) |  | 17.9 µM (inactive) | 10.5 µM (inactive) | 4.49 µM (inactive) | 0.139 µM (active) | 12.3 µM (inactive) | 20.5 µM (inactive) | 29.4 µM (inactive) | 45.7 µM (inactive) | 12 µM (inactive) | 3.09 µM (inactive) | 6.78 µM (inactive) | 15.1 µM (inactive) | 0.128 µM (active)
Cc1ccc2c(=O)c(-c3n[nH]c(=S)s3)c[nH]c2n1 | > 100 µM (inactive) | > 100 µM (inactive) | > 100 µM (inactive) | > 100 µM (inactive) | > 100 µM (inactive) | > 100 µM (inactive) | > 100 µM (inactive) | > 100 µM (inactive) |  | > 100 µM (inactive) | > 100 µM (inactive) | > 100 µM (inactive) | > 100 µM (inactive) | > 100 µM (inactive) | > 100 µM (inactive) | > 100 µM (inactive) | > 100 µM (inactive) | > 100 µM (inactive) |  | > 100 µM (inactive)
COc1cc(NC(C)CCCN)c2nccc(C)c2c1 (stereo not drawn) | 26.6 µM (inactive) | 14.3 µM (inactive) | 15.3 µM (inactive) | 15.8 µM (inactive) |  | 55.3 µM (inactive) | > 10 µM (inactive) | 19.5 µM (inactive) | 24.9 µM (inactive) | 16.2 µM (inactive) |  | 21.8 µM (inactive) |  | 21.2 µM (inactive) | 26.8 µM (inactive) | 19 µM (inactive) | 31.9 µM (inactive) |  | 14.2 µM (inactive) | 
O=C(NCCC1CNc2ccccc21)OCc1ccccc1 (stereo not drawn) | > 100 µM (inactive) | > 100 µM (inactive) | > 100 µM (inactive) | > 100 µM (inactive) |  | > 100 µM (inactive) | > 100 µM (inactive) | > 100 µM (inactive) | > 100 µM (inactive) | > 100 µM (inactive) | 71.4 µM (inactive) | > 100 µM (inactive) | > 100 µM (inactive) | > 100 µM (inactive) |  | > 100 µM (inactive) | > 100 µM (inactive) |  |  | 87.7 µM (inactive)
C/C(=C\CO)CC/C=C(\C)CNc1c(F)c(F)c(F)c(F)c1F | 43.2 µM (inactive) | 27.5 µM (inactive) | 22.4 µM (inactive) | 6.4 µM (inactive) | 29.2 µM (inactive) | 30.7 µM (inactive) | 19 µM (inactive) | 20.5 µM (inactive) |  | 29.2 µM (inactive) | 29.6 µM (inactive) | 44.5 µM (inactive) |  | 33.3 µM (inactive) | 29.5 µM (inactive) | 44.1 µM (inactive) | 24 µM (inactive) | 61.2 µM (inactive) | 28.1 µM (inactive) | 28.1 µM (inactive)
COC(=O)C1=C(O)C(C(=O)OC)[C@]2(O)[C@H](C(=O)OC)[C@H]1C[C@@H](c1ccc([N+](=O)[O-])cc1)[C@H]2C(=O)OC (stereo partly drawn) | 18.1 µM (inactive) | 25 µM (inactive) | 28.5 µM (inactive) | 15.9 µM (inactive) | 13 µM (inactive) | 21.5 µM (inactive) | 24.6 µM (inactive) | 16.2 µM (inactive) |  |  | 8.09 µM (inactive) | 34.8 µM (inactive) |  | 28.6 µM (inactive) | 74.1 µM (inactive) | 14.9 µM (inactive) | 22.6 µM (inactive) | 38.2 µM (inactive) | 42.3 µM (inactive) | 18 µM (inactive)
